According to patent US20210330756A1, “Acetylation of Miro1” (University of South Carolina, priority 2020, published 2021):

Test system: axonal mitochondrial transport in DRG neurons
Experiment: FRAP of Mito-GFP in distal axons of DRG neurons
Format: cell-based, rat
Description: MAG or Aggrecan exposures were performed as bath application or on coated substrates. For bath application, dissociated DRGs were cultured for 48 h and treated with 25 μg/ml of MAG-Fc (R&D Systems; 538-MG), 25 μg/ml Fc control (R&D Systems; 110-HG), or 10 μg/ml of Aggrecan (Sigma-Aldrich; A1960) for 4 h. Cultures were pretreated with either Ca^2+ chelator BAPTA-AM (3 μM; Sigma-Aldrich; A1076), ROCK inhibitor Y27632 (10 μM; Sigma-Aldrich; SCM075), HDAC6 inhibitor TubA (10 μM; R&D Systems; 6270), Thapsigargin (1 μM; Sigma-Aldrich; T9033), Rho Activator II (1 μg/ml; Cytoskeleton; CNO3), or equivalent volume DMSO 30 min before MAG-Fc, Aggrecan, or controls. For substrate-bound experiments, adult DRGs were cultured on glass bottom dishes (Greiner) that were coated with 25 μg/ml Aggrecan in addition to the laminin/poly-D-lysine substrate.
Mito-KR- and Mito-GFP-expressing DRG neurons were used for FRAP analyses at 48-72 h after transfection. To evaluate mitochondrial motility in Mito-KR-expressing neurons, Mito-KR signals were photobleached using continual exposure to an argon laser set at 594 nm for 30 s (100% laser power) The bleached ROI was then monitored for recovery using an argon laser set at 580 nm every 10 s over 16 min (13% laser power). For FRAP analyses with Mito-GFP, GFP signals were photobleached in a 50 μm ROI using an argon laser set at 488 nm every 10 s for 16 min (70% laser power). The same excitation was used for post-bleach imaging to assess recovery every 10 s for 16 min. For axon shaft FRAP experiments in Mito-GFP-expressing neurons, ROIs of ˜50 μm in length (without branches) were imaged >100 μm proximal to the growth cone. Prebleach, bleach, and post-bleach sequences were the same as for Mito-GFP above. In all cases, neurons were imaged over 40 s or more to acquire baseline Mito-KR or Mito-GFP signals before photobleaching using an argon laser (580 nm at 13% power for Mito-KR and 488 nm at 31% power for Mito-GFP).
Vesicle trafficking was quantified using differential ImageJ Difference Tracker Plug-in (Andrews et al., 2010). 50-80-μm long unbranched axon segments at approximately the mid-region between growth cone and cell body were analyzed. Kymographs were generated using ImageJ Kymograph Plug-in. For analyses of axon retraction in the CALI experiment, the distance from the distal tip of the growth cone in the pre-CALI image sequence was used as the baseline (t=1 min). The distance between the growth tip at end of the post-CALI sequence and the pre-CALI baseline was measured using LAS-X software. Movement of ≥0.5 μm toward the axon shaft was counted as retracted. Fluorescence emission of the Mito-KR post-CALI was analyzed using ImageJ. For normalizing intensities across FRAP image sets, fluorescence intensity at each time point was scaled using the LAS-X FRAP module so that the residual fluorescence signal at t=0 min (post-bleach) was set at 0 and the prebleach intensity was set at 100% for each bleached ROI. For axon shaft FRAP analyses, each 50-μm bleached ROI was divided into […], and the fluorescence intensity recovery was measured as described above. EMs at 1,900× and 4,800× magnification across the crosssectional surface of each sciatic nerve were used for in vivo analyses of mitochondrial content. A minimum of 75 unmyelinated axons was analyzed for each nerve. All unmyelinated axons from each analyzed image were included for quantitative studies. The total number of mitochondria was determined in each unmyelinated axon in the field and was divided by the total number of unmyelinated axons for all subjects. […] was determined by changes in JC-1 fluorescence. JC-1 exists either as a green fluorescent monomer at depolarized membrane potentials or as an orange-red fluorescent aggregate at hyperpolarized membrane potentials. […]

Compound	Mito-GFP recovery for thapsigargin-treated cultures, Myc-Miro1K105Q-expressing neurons (1 μM thapsigargin + 10 μM TubA)	Mito-GFP recovery for thapsigargin-treated cultures, Myc-Miro1K629Q-expressing neurons (1 μM thapsigargin + 10 μM TubA)	Mito-GFP recovery in DRGs transfected with WT, K40Q or K40A α-tubulin (10 μM TubA vs DMSO, 960 s after bleach)	mitochondrial transport with combined 10 μM TubA, 3 μM BAPTA-AM and ROCK inhibitor vs each alone (MAG-Fc, Mito-GFP FRAP)	effect on Rho activator-dependent decrease in mitochondrial transport (Rho-Activator + 10 μM TubA)	effect on aggrecan-dependent decrease in Mito-GFP recovery (aggrecan 10 μg/ml, TubA 10 μM or Y27632 10 μM)	effect on MAG-Fc-dependent decrease in Mito-GFP recovery / mitochondrial transport (pretreatment: TubA 10 μM, Y27632 10 μM or BAPTA-AM 3 μM, 960 s after bleach)	effect on thapsigargin-dependent decrease in mitochondrial transport (thapsigargin + 10 μM TubA)	mitochondrial transport in DRG axons (Mito-GFP FRAP) (1 μM thapsigargin)
CN1CCc2c(c3ccccc3n2Cc2ccc(C(=O)NO)cc2)C1 [TubA, tubastatin]	only a modest response to TubA treatment	significantly increased by TubA treatment	significantly increases Mito-GFP recovery in all three conditions	did not increase mitochondrial transport above the results seen	prevented by treatment with TubA	prevented by treatment with TubA	prevented by TubA pretreatment	prevented by inhibition of HDAC6	–
C/C=C(/C)C(=O)O[C@H]1C(C)=C2[C@H]([C@@H]1OC(=O)CCCCCCC)[C@@](C)(OC(C)=O)C[C@H](OC(=O)CCC)[C@@]1(O)[C@H]2OC(=O)[C@@]1(C)O [thapsigargin]	–	–	–	–	–	–	–	–	similarly decreased mitochondrial transport
